Results: ChEMBL document CHEMBL1127363, “Structure-activity relationship studies of N-sulfonyl analogs of cocaine: role of ionic interaction in cocaine binding” (J Med Chem, 1994)

Experiments:
[1] = target: T1, Sodium-dependent dopamine transporter (Rattus norvegicus, UniProt P23977); assay: Binding affinity was tested by measuring its ability to displace [3H]mazindol binding against dopamine transporter (DAT) of rat striatal membranes
Rattus norvegicus [2] = species: Rattus norvegicus; assay: Compound was tested to inhibit high affinity uptake of [3H]- -Dopamine into striatal nerve endings (synaptosomes); format: functional, Brain
Rattus norvegicus [3] = species: Rattus norvegicus; assay: Compound was tested to inhibit high affinity uptake of [3H]dopamine into striatal nerve endings (synaptosomes); format: functional, Brain
[4] = target: T1, Sodium-dependent dopamine transporter; assay: Binding affinity was tested by measuring its ability to displace [3H]-mazindol binding against dopamine transporter (DAT) of rat striatal membranes
Rattus norvegicus [5] = species: Rattus norvegicus; assay: Compound was tested to inhibit high affinity uptake of [3H]- -dopamine into striatal nerve endings (synaptosomes); format: functional, Brain
[6] = target: Sodium-dependent dopamine transporter (Rattus norvegicus) (UniProt P23977); assay: Inhibition of [3H]mazindol binding to dopamine transporter (DAT) of rat striatal membranes at 100 uM; format: cell membranes; conditions: Membrane
Sodium-dependent dopamine transporter (Rattus norvegicus), sequence (P23977 whole entry): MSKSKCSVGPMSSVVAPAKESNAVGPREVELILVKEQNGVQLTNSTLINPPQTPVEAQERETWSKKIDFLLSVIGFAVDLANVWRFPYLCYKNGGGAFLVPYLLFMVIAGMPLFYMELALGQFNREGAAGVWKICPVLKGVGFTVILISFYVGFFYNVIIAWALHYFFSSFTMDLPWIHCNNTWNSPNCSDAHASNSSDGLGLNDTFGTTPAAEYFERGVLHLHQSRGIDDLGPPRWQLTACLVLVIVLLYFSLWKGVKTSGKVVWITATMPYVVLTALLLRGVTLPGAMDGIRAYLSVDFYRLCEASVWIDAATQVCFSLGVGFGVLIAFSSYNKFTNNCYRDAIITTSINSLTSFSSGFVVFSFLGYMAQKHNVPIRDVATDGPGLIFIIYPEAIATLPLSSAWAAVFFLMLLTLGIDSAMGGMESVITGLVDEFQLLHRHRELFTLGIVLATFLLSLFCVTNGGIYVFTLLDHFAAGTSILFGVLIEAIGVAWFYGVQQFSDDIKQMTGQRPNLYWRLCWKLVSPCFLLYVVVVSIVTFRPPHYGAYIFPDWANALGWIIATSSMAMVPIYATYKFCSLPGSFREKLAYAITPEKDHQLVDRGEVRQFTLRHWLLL

Rattus norvegicus [7] = species: Rattus norvegicus; assay: Inhibition of high affinity uptake of [3H]- -dopamine into striatal nerve endings (synaptosomes) at 300 uM; format: functional; conditions: Brain

T1 sequence (P23977 whole entry): as above

Row | SMILES | Ki [1] | Ki [4] | Ki (Rattus norvegicus [5]) | also measured
1 | COC(=O)[C@@H]1C2CC[C@@H](C[C@@H]1OC(=O)c1ccccc1)N2S(=O)(=O)N=C=O | 0.12 µM |  |  | Ki (Rattus norvegicus [2]): 0.16 µM
2 | COC(=O)[C@@H]1C2CCC(C[C@@H]1OC(=O)c1ccccc1)N2S(C)(=O)=O (some centres undefined) | 1.29 µM |  |  | Ki (Rattus norvegicus [3]): 1.97 µM
3 | COC(=O)[C@@H]1C2CCC(C[C@@H]1OC(=O)c1ccccc1)N2S(=O)(=O)c1ccc(OC)cc1 (some centres undefined) |  | 6.82 µM | 16.4 µM | 
4 | COC(=O)[C@@H]1C2CCC(C[C@@H]1OC(=O)c1ccccc1)N2S(=O)(=O)c1ccc([N+](=O)[O-])cc1 (some centres undefined) |  | 5.72 µM | 18.8 µM | inhibition [6]: 80%; inhibition (Rattus norvegicus [7]): 72%
5 | COC(=O)[C@@H]1C2CCC(C[C@@H]1OC(=O)c1ccccc1)N2S(=O)(=O)C(F)(F)F (some centres undefined) |  | 0.33 µM | 0.76 µM | 
6 | COC(=O)[C@@H]1C2CCC(C[C@@H]1OC(=O)c1ccccc1)N2S(=O)(=O)c1ccccc1 (some centres undefined) |  | 20.8 µM | 61 µM | 
